Here are results for 17 compounds from patent publication US9586952B2, “Polycyclic estrogen receptor modulators and uses thereof” (SERAGON PHARMACEUTICALS, INC., priority 2013, dated 2017).

One assay relates to MCF-7 cells. Nature of the assay: MCF7 Viability Assay (Breast Cancer Cell Viability Assay). The class given is cell-based. Conditions: 5 days' compound exposure, CellTiter-Glo; for IC50: Homo sapiens, MCF7, 120 h. In outline: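 Cells (320 per well, RPMI with 10% FBS and 20 mM HEPES) adhered overnight, then were exposed 5 days to an eleven-point semilog compound series, 0.3-0.000003 μM final. Viability read by CellTiter-Glo luminescence, background-subtracted, expressed as % of untreated cells.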
(In ATP-based viability assays light output follows the ATP content of the culture.)

A further assay addresses T1, ER-α (Homo sapiens, UniProt P03372).
T1 construct: endogenous in cells; host or cells: MCF-7
T1 sequence (P03372 1-595): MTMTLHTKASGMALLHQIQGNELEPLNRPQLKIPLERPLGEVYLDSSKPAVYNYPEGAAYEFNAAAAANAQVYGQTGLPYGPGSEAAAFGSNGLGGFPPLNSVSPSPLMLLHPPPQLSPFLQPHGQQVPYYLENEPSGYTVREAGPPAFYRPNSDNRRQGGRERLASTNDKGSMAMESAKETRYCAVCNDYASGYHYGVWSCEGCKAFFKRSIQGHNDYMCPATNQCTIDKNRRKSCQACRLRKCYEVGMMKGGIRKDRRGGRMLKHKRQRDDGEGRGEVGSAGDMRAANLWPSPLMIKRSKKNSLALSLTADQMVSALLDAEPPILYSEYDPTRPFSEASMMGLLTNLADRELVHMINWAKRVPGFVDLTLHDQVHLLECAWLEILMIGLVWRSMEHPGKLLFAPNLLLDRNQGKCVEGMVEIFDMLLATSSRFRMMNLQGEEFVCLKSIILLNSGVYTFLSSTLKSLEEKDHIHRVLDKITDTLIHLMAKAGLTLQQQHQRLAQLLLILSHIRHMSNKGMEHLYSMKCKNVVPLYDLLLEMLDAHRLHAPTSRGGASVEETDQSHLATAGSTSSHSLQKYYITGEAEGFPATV
Nature of the assay: Breast Cancer Cell ER-α In Cell Western Assay (SP1). The class given is cell-based. The note with it: MCF-7 cells, 4 or 24 hr post compound addition, SP1 antibody; for Emax: MCF7, read-out: ER-α In Cell Western Assay (SP1) Max Response; for DC50: read-out: ER-α In Cell Western Assay (SP1) IC50. In outline:
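MCF-7 cells in RPMI with 10% charcoal-stripped FBS received an eleven-point semilog series, 0.3-0.000003 μM final, for 4 or 24 hr. After fixation, ER-α stained with SP1 antibody and IRDye 800 CW, DNA with DRAQ5; % ER = 800/700 nm intensity ratio relative to untreated cells.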

The IC50 is the concentration that gives 50% inhibition. Higher therefore signals a need for much substance. Regarding `O=C(O)/C=C/c1ccc(/C(=C(\c2ncccc2F)C2CCC2)c2ccc(-c3cn[nH]c3)cc2)cc1` [Example 41, (E)-3-(4-((E)-1-(4-(1H-Pyrazol-4-yl)phenyl)-2-cyclobutyl-2-(3-fluoropyridin-2-yl)vinyl)phenyl)acrylic acid], in the assay with MCF-7 cells, the “MCF7 Viability Assay Max Response” value is recorded as “++ (++ = a single % value ≧ 40%)” and the IC50 is > 0.1 µM. Besides, on ER-α, the Emax is ≥ 40% and the DC50 was ≤ 0.1 µM.

With `O=C(O)/C=C/c1ccc(/C(=C(\c2ncccc2Cl)C2CCC2)c2ccc(-c3cn[nH]c3)cc2)cc1` [Example 42, (E)-3-(4-((E)-1-(4-(1H-Pyrazol-4-yl)phenyl)-2-(3-chloropyridin-2-yl)-2-cyclobutylvinyl)phenyl)acrylic acid], in the assay on MCF-7 cells, the “MCF7 Viability Assay Max Response” value is listed as “++ (++ = a single % value ≧ 40%)” and the IC50 is ≤ 0.1 µM. In addition, on ER-α, the Emax was ≥ 40% and the DC50 is ≤ 0.1 µM.

Turning to `O=C(O)/C=C/c1ccc(/C(=C(\c2ncccc2Cl)C2CCC2)c2ccc(N3CCOCC3)cc2)cc1` [Example 43, (E)-3-(4-((E)-2-(3-Chloropyridin-2-yl)-2-cyclobutyl-1-(4-morpholinophenyl)vinyl)phenyl)acrylic acid], in the assay with MCF-7 cells, the “MCF7 Viability Assay Max Response” value is “++ (++ = a single % value ≧ 40%)” and the IC50 is ≤ 0.1 µM. On ER-α, the Emax is ≥ 40% and the DC50 is ≤ 0.1 µM.

As for `N#Cc1cc(Cl)ccc1/C(=C(\c1ccc(/C=C/C(=O)O)cc1)c1ccc(-c2cn[nH]c2)cc1)C1CCC1` [Example 44, (E)-3-(4-((E)-1-(4-(1H-Pyrazol-4-yl)phenyl)-2-(4-chloro-2-cyanophenyl)-2-cyclobutylvinyl)phenyl)acrylic acid], in the assay with MCF-7 cells, the “MCF7 Viability Assay Max Response” value was “++ (++ = a single % value ≧ 40%)” and the half-maximal inhibitory concentration (IC50) was ≤ 0.1 µM. On ER-α, the Emax is ≥ 40% and the DC50 is ≤ 0.1 µM.

In the case of `N#Cc1ccc(/C(=C(\c2ccc(/C=C/C(=O)O)cc2)c2ccc(N3CCOCC3)cc2)C2CCC2)c(Cl)c1` [Example 45, (E)-3-(4-((E)-2-(2-Chloro-4-cyanophenyl)-2-cyclobutyl-1-(4-morpholinophenyl)vinyl)phenyl)acrylic acid], in the assay on MCF-7 cells, the “MCF7 Viability Assay Max Response” value was “++ (++ = a single % value ≧ 40%)” and the IC50 was ≤ 0.1 µM. For the same compound, on ER-α, the Emax was ≥ 40% and the DC50 was ≤ 0.1 µM.

For `N#Cc1cc(Cl)ccc1/C(=C(\c1ccc(/C=C/C(=O)O)cc1)c1ccc(N2CCOCC2)cc1)C1CCC1` [Example 46, (E)-3-(4-((E)-2-(4-Chloro-2-cyanophenyl)-2-cyclobutyl-1-(4-morpholinophenyl)vinyl)phenyl)acrylic acid], in the assay with MCF-7 cells, the “MCF7 Viability Assay Max Response” value is reported as “++ (++ = a single % value ≧ 40%)” and the concentration for half-maximal inhibition (IC50) was ≤ 0.1 µM. Also, on ER-α, the Emax is ≥ 40% and the DC50 was ≤ 0.1 µM.

On to `COc1ccc(/C(=C(\c2ccc(/C=C/C(=O)O)cc2)c2ccc(N3CCOCC3)cc2)C2CCC2)c(C)c1` [Example 47, (E)-3-(4-((E)-2-Cyclobutyl-2-(4-methoxy-2-methylphenyl)-1-(4-morpholinophenyl)vinyl)phenyl)acrylic acid], for which, in the assay with MCF-7 cells, the “MCF7 Viability Assay Max Response” value is given as “++ (++ = a single % value ≧ 40%)” and the IC50 was ≤ 0.1 µM. Also, on ER-α, the Emax is ≥ 40% and the DC50 is ≤ 0.1 µM.

With `O=C(O)/C=C/c1ccc(/C(=C(\c2ccc(C(F)(F)F)cc2Cl)C2CCC2)c2ccc(N3CCOCC3)cc2)cc1` [Example 48, (E)-3-(4-((E)-2-(2-Chloro-4-(trifluoromethyl)phenyl)-2-cyclobutyl-1-(4-morpholinophenyl)vinyl)phenyl)acrylic acid], in the assay on MCF-7 cells, the “MCF7 Viability Assay Max Response” value is given as “++ (++ = a single % value ≧ 40%)” and the IC50 was ≤ 0.1 µM. At ER-α, the Emax is ≥ 40% and the DC50 was ≤ 0.1 µM.

Turning to `O=C(O)/C=C/c1ccc(/C(=C(\c2ccc(F)cc2Cl)C2CCC2)c2ccc(-c3nn[nH]n3)cc2)cc1` [Example 49, (E)-3-(4-((E)-1-(4-(2H-Tetrazol-5-yl)phenyl)-2-(2-chloro-4-fluorophenyl)-2-cyclobutylvinyl)phenyl)acrylic acid], in the assay with MCF-7 cells, the “MCF7 Viability Assay Max Response” value was “+ (+ = a single % value < 40%)” and the IC50 is > 0.1 µM. Further, on ER-α, the Emax is < 40% and the DC50 is > 0.1 µM.

Turning to `COc1ccc(/C(=C(\c2ccc(/C=C/C(=O)O)cc2)c2ccc(-c3nn[nH]n3)cc2)C2CCC2)c(Cl)c1` [Example 50, (E)-3-(4-((E)-1-(4-(2H-Tetrazol-5-yl)phenyl)-2-(2-chloro-4-methoxyphenyl)-2-cyclobutylvinyl)phenyl)acrylic acid], in the assay with MCF-7 cells, the “MCF7 Viability Assay Max Response” value is “++ (++ = a single % value ≧ 40%)” and the IC50 was > 0.1 µM. Besides, at ER-α, the Emax was ≥ 40% and the DC50 was > 0.1 µM.

Regarding `COc1ccc(/C(=C(\c2ccc(/C=C/C(=O)O)cc2)c2ccc(-c3cn[nH]c3)cc2)C2CCC2)c(Cl)c1` [Example 51, (E)-3-(4-((E)-1-(4-(1H-Pyrazol-4-yl)phenyl)-2-(2-chloro-4-methoxyphenyl)-2-cyclobutylvinyl)phenyl)acrylic acid], in the assay with MCF-7 cells, the “MCF7 Viability Assay Max Response” value is given as “++ (++ = a single % value ≧ 40%)” and the IC50 was ≤ 0.1 µM. Moreover, on ER-α, the Emax was ≥ 40% and the DC50 was ≤ 0.1 µM.

Consider `O=C(O)/C=C/c1ccc(/C(=C(\c2ccc(OC(F)(F)F)cc2Cl)C2CCC2)c2ccc(-c3cn[nH]c3)cc2)cc1` [Example 52, (E)-3-(4-((E)-1-(4-(1H-Pyrazol-4-yl)phenyl)-2-(2-chloro-4-(trifluoromethoxy)phenyl)-2-cyclobutylvinyl)phenyl)acrylic acid], for which, in the assay on MCF-7 cells, the “MCF7 Viability Assay Max Response” value is given as “++ (++ = a single % value ≧ 40%)” and the IC50 is ≤ 0.1 µM. At ER-α, the Emax was ≥ 40% and the DC50 was ≤ 0.1 µM.

As to `COc1ccc(/C(=C(\c2ccc(/C=C/C(=O)O)cc2)c2ccc(-c3cncs3)cc2)C2CCC2)c(Cl)c1` [Example 53, (E)-3-(4-((E)-2-(2-Chloro-4-methoxyphenyl)-2-cyclobutyl-1-(4-(thiazol-5-yl)phenyl)vinyl)phenyl)acrylic acid], in the assay on MCF-7 cells, the “MCF7 Viability Assay Max Response” value was “++ (++ = a single % value ≧ 40%)” and the IC50 is ≤ 0.1 µM. On ER-α, the Emax was ≥ 40% and the DC50 was ≤ 0.1 µM.

As for `COc1ccc(/C(=C(\c2ccc(/C=C/C(=O)O)cc2)c2ccc(-c3cncs3)cc2)C2CCC2)c(C)c1` [Example 54, (E)-3-(4-((E)-2-Cyclobutyl-2-(4-methoxy-2-methylphenyl)-1-(4-(thiazol-5-yl)phenyl)vinyl)phenyl)acrylic acid], in the assay on MCF-7 cells, the “MCF7 Viability Assay Max Response” value was “++ (++ = a single % value ≧ 40%)” and the IC50 was ≤ 0.1 µM. For the same compound, at ER-α, the Emax is ≥ 40% and the DC50 is ≤ 0.1 µM.

On to `O=C(O)/C=C/c1ccc(/C(=C(\c2ccc(C(F)(F)F)cc2Cl)C2CCC2)c2ccc(-c3cn[nH]c3)cc2)cc1` [Example 55, (E)-3-(4-((E)-1-(4-(1H-Pyrazol-4-yl)phenyl)-2-(2-chloro-4-(trifluoromethyl)phenyl)-2-cyclobutylvinyl)phenyl)acrylic acid], for which, in the assay on MCF-7 cells, the “MCF7 Viability Assay Max Response” value is recorded as “++ (++ = a single % value ≧ 40%)” and the IC50 is ≤ 0.1 µM. For the same compound, at ER-α, the Emax is ≥ 40% and the DC50 is ≤ 0.1 µM.

With `O=C(O)/C=C/c1ccc(/C(=C(\c2ccc(F)cc2Cl)C2CCC2)c2ccc(-c3ccncc3)cc2)cc1` [Example 56, (E)-3-(4-((E)-2-(2-Chloro-4-fluorophenyl)-2-cyclobutyl-1-(4-(pyridin-4-yl)phenyl)vinyl)phenyl)acrylic acid], in the assay with MCF-7 cells, the “MCF7 Viability Assay Max Response” value is on record as “++ (++ = a single % value ≧ 40%)” and the IC50 is ≤ 0.1 µM. On ER-α, the Emax is ≥ 40% and the DC50 is ≤ 0.1 µM.

Turning to `O=C(O)/C=C/c1ccc(/C(=C(\c2ncc(C(F)(F)F)cc2Cl)C2CCC2)c2ccc(N3CCOCC3)cc2)cc1` [Example 57, (E)-3-(4-((E)-2-(3-Chloro-5-(trifluoromethyl)pyridin-2-yl)-2-cyclobutyl-1-(4-morpholinophenyl)vinyl)phenyl)acrylic acid], in the assay on MCF-7 cells, the “MCF7 Viability Assay Max Response” value is listed as “++ (++ = a single % value ≧ 40%)” and the IC50 was ≤ 0.1 µM. At ER-α, the Emax is ≥ 40% and the DC50 was ≤ 0.1 µM.
